Test [1] has as its target HCV NS3/4A protease complex (Hepatitis C virus genotype 1a, UniProt P27958, C1454S/C1711G). The test can be described thus: Recombinant HCV NS3/4A protease complex FRET peptide assay (strain not stated). The test is classed as biochemical. As to conditions: IC50, NS3/4A protease enzyme assay, strain not stated; activity ranges. The source says: The purpose of this in vitro assay was to measure the inhibition of HCV NS3 protease complexes, derived from the BMS, H77C or J416S strains, as described below, by compounds of the present invention.
Serum from an HCV-infected patient was obtained from Dr. T. Wright, San Francisco Hospital. An engineered full-length cDNA template of the HCV genome (BMS strain) was constructed from DNA fragments obtained by reverse transcription-PCR (RT-PCR) of serum RNA and using primers selected on the basis of homology between other genotype 1a strains. […] The infectious clones, H77C (1a genotype) and J4L6S (1b genotype) were obtained from R. Purcell (NIH) and the sequences are published in genebank (AAB67036, see Yanagi, M., Purcell, R. H., Emerson, S. U. and Bukh, J. Proc. Natl. Acad. Sci. U.S.A. 94(16),8738-8743 (1997); AF054247, see Yanagi, M., St Claire, M., Shapiro, M., Emerson, S. U., Purcell, R. H. and Bukh, J, Virology 244 (1), 161-172. (1998)).
The BMS, H77C and J4L6S strains were used for production of recombinant NS3/4A protease complexes. DNA encoding the recombinant HCV NS3/4A protease complex (amino acid 1027 to 1711) for these strains were manipulated as described by P. Gallinari et al. (see Gallinari P, Paolini C, Brennan D, Nardi C, Steinkuhler C, De Francesco R. Biochemistry. 38(17):5620-32, (1999)). Briefly, a three-lysine solubilizing tail was added at the 3′-end of the NS4A coding region. The cysteine in the P1 position of the NS4A-NS4B cleavage site (amino acid 1711) was changed to a glycine to avoid the proteolytic cleavage of the lysine tag. Furthermore, a cysteine to serine mutation was introduced by PCR at amino acid position 1454 to prevent the autolytic cleavage in the NS3 helicase domain. The variant DNA fragment was cloned in the pET21b bacterial expression vector and the NS3/4A complex was expressed in E. coli BL21 (DE3) following the protocol described by P. Gallinari et al. (see Gallinari P, Brennan D, Nardi C, Brunetti M, Tomei L, Steinkuhler C, De Francesco R., J Virol. 72(8):6758-69 (1998)) with modifications. Briefly, NS3/4A expression was induced with 0.5 mM IPTG for 22 hr at 20° C. […] The cells were resuspended in lysis buffer (10 mL/g) consisting of 25 mM HEPES, pH 7.5, 20% glycerol, 500 mM NaCl, 0.5% Triton-X100, 1 ug/ml lysozyme, 5 mM MgCl2, 1 ug/ml DNaseI 5 mM β-Mercaptoethanol (βME), Protease inhibitor—EDTA free, homogenized and incubated for 20 mins at 4° C. The homogenate was sonicated and clarified by ultra-centrifugation at 235000 g for 1 hr at 4° C. Imidazole was added to the supernatant to a final concentration of 15 mM and the pH adjusted to 8.0. The crude protein extract was loaded on a Ni-NTA column pre-equilibrated with buffer B (25 mM HEPES, pH 8.0, 20% glycerol, 500 mM NaCl, 0.5% Triton-X100, 15 mM imidazole, 5 mM βME). The sample was loaded at a flow rate of 1 mL/min. The column was washed with 15 column volumes of buffer C (same as buffer B except with 0.2% Triton-X100). The protein was eluted with 5 column volumes of 200 mM Imidazole in buffer.
NS3/4A protease complex-containing fractions were pooled and loaded on a desalting column Superdex-S200 pre-equilibrated with buffer D (25 mM HEPES, pH 7.5, 20% glycerol, 300 mM NaCl, 0.2% Triton-X100, 10 mM βME). Sample was loaded at a flow rate of 1 mL/min. NS3/4A protease complex-containing fractions were pooled and concentrated to approximately 0.5 mg/ml.

Test [2] relates to HCV replicon in Huh7 cells. The test can be described thus: HCV replicon cell-based assay. The arrangement: species or system HCV strain 1B. As to conditions: Hepatitis C virus, Huh-7, 96 h; HCV replicon, Huh7 cells, 4 days; activity ranges; read-out: EC50. The source says: An HCV replicon whole cell system was established as described by Lohmann V, Korner F, Koch J, Herian U, Theilmann L, Bartenschlager R., Science 285(5424):110-3 (1999). This system enabled us to evaluate the effects of our HCV Protease compounds on HCV RNA replication. Briefly, using the HCV strain 1B sequence described in the Lohmann paper (Assession number:AJ238799), an HCV cDNA was generated encoding the 5′ internal ribosome entry site (IRES), the neo gene, the EMCV-IRES and the HCV nonstructural proteins, NS3-NS5B, and 3′ NTR. […] Resulting cell lines were characterized for positive and negative RNA production and protein production over time.
Huh7 cells, constitutively expressing the HCV replicon, were grown in DMEM containing 10% FCS (Fetal calf serum) and 1 mg/ml G418 (Gibco-BRL). Cells were seeded the night before (1.5×10^4 cells/well) in 96-well tissue-culture sterile plates. Compound was prepared in DMEM containing 4% FCS, 1:100 Penicillin/Streptomysin, 1:100 L-glutamine and 0.5% DMSO. Compound/DMSO mixes were added to the cells and incubated for 4 days at 37° C. After 4 days, cells were either lyzed using the Rneasy kit (Qiagen) to isolate and purify RNA for an EC50 determination or assessed for cytotoxicity using alamar Blue (Trek Diagnotstic Systems) for a CC50 reading. For an EC50 determination, purified total RNA was normalized using RiboGreen (Jones L J, Yue S T, Cheung C Y, Singer V L, Anal. Chem., 265(2):368-74 (1998)) and relative quantitation of HCV RNA expression assessed using the Taqmann procedure (Kolykhalov A A, Mihalik K, Feinstone S M, Rice C M, Journal of Virology 74, 2046-2051 (2000)). Briefly, RNA made to a volume of 5 μl (≦1 ng) was added to a 20 μl Ready-Mix containing the following: 5×EZ rTth buffer, 3 mM MnOAc2, 3 mM dNTPs, 200 nM forward primer, 600 nM reverse primer, 100 nM probe and rTth polymerase. Samples containing known concentrations of HCV RNA transcript were run as standards. Using the following cycling protocol (95° C., 1 min; 60° C., 0.5 min; 95° C., 2 min; 40 cycles of 94° C., 0.5 min, 60° C.; 1 min; and completing with 60° C., 10 min), HCV RNA expression was quantitated as described in the Perkin Elmer manual. The toxicity of compound (CC50) was determined by adding 1/10th volume of alamar Blue to the media incubating the cells. After 4 hr, the fluorescence signal from each well was read, with an excitation wavelength at 530 nm and an emission wavelength of 580 nm, using the Cytofluor Series 4000 (Perspective Biosystems).

Bounds are passed on as bounds.

Sequence of HCV NS3/4A protease complex (P27958 1027-1711, stated change not applied): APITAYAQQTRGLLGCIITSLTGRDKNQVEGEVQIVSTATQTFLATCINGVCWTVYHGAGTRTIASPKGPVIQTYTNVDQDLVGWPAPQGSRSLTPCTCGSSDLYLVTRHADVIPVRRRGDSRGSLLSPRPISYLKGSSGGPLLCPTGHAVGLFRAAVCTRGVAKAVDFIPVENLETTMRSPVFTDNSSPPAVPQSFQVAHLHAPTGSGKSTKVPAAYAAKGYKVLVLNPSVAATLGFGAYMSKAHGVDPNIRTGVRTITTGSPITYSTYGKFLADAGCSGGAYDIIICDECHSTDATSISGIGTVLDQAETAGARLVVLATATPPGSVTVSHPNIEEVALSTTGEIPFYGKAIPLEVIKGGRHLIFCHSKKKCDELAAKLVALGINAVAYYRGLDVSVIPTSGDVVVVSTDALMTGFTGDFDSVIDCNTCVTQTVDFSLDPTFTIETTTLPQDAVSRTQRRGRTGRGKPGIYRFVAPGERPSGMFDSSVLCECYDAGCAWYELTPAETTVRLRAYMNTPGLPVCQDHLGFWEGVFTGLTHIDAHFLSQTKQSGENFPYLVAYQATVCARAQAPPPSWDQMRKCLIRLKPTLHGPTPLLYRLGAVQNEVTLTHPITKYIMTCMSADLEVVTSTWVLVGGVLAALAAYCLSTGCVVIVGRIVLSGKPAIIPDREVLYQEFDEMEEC
Sequence of HCV NS3/4A protease complex (P27958 1027-1711, stated change not applied): as above

Take `C=CC1C[C@]1(NC(=O)[C@@H]1C[C@@H](Oc2cc(-c3ccccc3)nc3cc(OC)ccc23)CN1C(=O)[C@@H](NC(=O)OC(C)(C)C)C(C)(C)C)C(=O)NS(=O)(=O)C1CCCC1` (stereo in doubt) [Compound 12, {1-[2-(1-Cyclopentanesulfonylaminocarbonyl-2-vinylcyclopropylcarbamoyl)-4-(7-methoxy-2-phenylquinolin-4-yloxy)-pyrrolidine-1-carbonyl]-2,2-dimethylpropyl}carbamic acid tert-butyl ester]: the IC50 in test [1] was less than 500 nM. Moreover, the EC50 in test [2] was less than 500 nM.

For the compound `COc1ccc2c(O[C@@H]3C[C@@H](C(=O)NC4(C(=O)NS(=O)(=O)C5CC5)CCC4)N(C(=O)[C@@H](NC(=O)OC(C)(C)C)C(C)(C)C)C3)cc(-c3ccccc3)nc2c1` [Compound 22], in test [1], the IC50 was less than 50 nM. Besides, the EC50 in test [2] was less than 500 nM.

On to `C=CC1C[C@]1(NC(=O)[C@@H]1C[C@@H](Oc2cc(-c3ccccc3)nc3cc(OC)ccc23)CN1C(=O)[C@@H](NC(=O)OC(C)(C)C)C(C)(C)C)C(=O)NS(=O)(=O)C1CCCCC1` (stereo in doubt) [Compound 13, {1-[2-(1-Cyclohexanesulfonylaminocarbonyl-2-vinylcyclopropylcarbamoyl)-4-(7-methoxy-2-phenylquinolin-4-yloxy)pyrrolidine-1-carbonyl]-2,2-dimethylpropyl}carbamic acid tert-butyl ester], for which, in test [1], the IC50 is less than 500 nM. Besides, in test [2], the EC50 was less than 500 nM.

Consider `C=C[C@@H]1C[C@]1(NC(=O)C1C[C@@H](Oc2cc(-c3ccccc3)nc3cc(OC)ccc23)CN1C(=O)[C@@H](NC(=O)CCC(=O)O)C(C)(C)C)C(=O)NS(=O)(=O)C1CC1` (stereo partly drawn) [Compound 100, N-{1S-[2S-(1R-cyclopropanesulfonylaminocarbonyl-2S-vinyl-cyclopropylcarbamoyl)-4R-(7-methoxy-2-phenyl-quinolin-4-yloxy)-pyrrolidine-1-carbonyl]-2,2-dimethyl-propyl}-succinamic acid], for which, in test [1], the IC50 is less than 50 nM. The 50% effective concentration (EC50) in test [2] is less than 500 nM.

Take `C=C[C@@H]1C[C@]1(NC(=O)C1C[C@@H](Oc2cc(-c3ccccc3)nc3cc(OC)ccc23)CN1C(=O)[C@@H](NC(=O)CC1CC1)C(C)(C)C)C(=O)NS(=O)(=O)C1CC1` (stereo partly drawn) [Compound 104, 1-[2S-(2-cyclopropyl-acetylamino)-3,3-dimethyl-butyryl]-4R-(7-methoxy-2-phenyl-quinolin-4-yloxy)-pyrrolidine-2S-carboxylic acid (1R-cyclopropanesulfonylaminocarbonyl-2S-vinyl-cyclopropyl)-amide]: the IC50 in test [1] was less than 50 nM. Also, the EC50 in test [2] is less than 50 nM.

For the compound `CCC(C)[C@H](NC(=O)OC(C)(C)C)C(=O)N1C[C@H](Oc2cc(-c3ccccc3)nc3cc(OC)ccc23)C[C@H]1C(=O)NC1(C(=O)NS(=O)(=O)C2CC2)CC12CCC2` (some centres unmarked) [Compound 137], the IC50 in test [1] was less than 5000 nM. Further, the EC50 in test [2] was less than 5000 nM.

With `CCC1C[C@]1(NC(=O)C1C[C@@H](Oc2cc(-c3ccccc3)nc3cc(OC)ccc23)CN1C(=O)[C@@H](NC(=O)OCCF)C(C)C)C(=O)NS(=O)(=O)C1CC1` (some centres unmarked) [Compound 9], the IC50 in test [1] was less than 50 nM. Moreover, the EC50 in test [2] was less than 500 nM.

For the compound `C=CC1C[C@]1(NC(=O)[C@@H]1C[C@@H](Oc2cc(-c3ccccc3)nc3cc(OC)ccc23)CN1C(=O)[C@@H](NC(=O)NC(C)(C)C)C(C)(C)C)C(=O)NS(=O)(=O)C1CC1` (stereo in doubt) [Compound 19, 1-[2-(3-tert-Butylureido)-3,3-dimethylbutyryl]-4-(7-methoxy-2-phenylquinolin-4-yloxy)pyrrolidine-2-carboxylic acid (1-cyclopropanesulfonylaminocarbonyl-2-vinylcyclopropyl)amide], in test [1], the IC50 is less than 50 nM. In addition, in test [2], the EC50 is less than 50 nM.

For `COc1ccc2c(O[C@@H]3C[C@@H](C(=O)NC4(C(=O)NS(=O)(=O)C5CC5)CC4)N(C(=O)[C@@H](NC(=O)OC(C)(C)C)C(C)(C)C)C3)cc(-c3ccccc3)nc2c1` [Compound 67], the IC50 in test [1] was less than 50 nM. In addition, the EC50 in test [2] was less than 5000 nM.

As for `C=CC1C[C@]1(NC(=O)[C@@H]1C[C@@H](Oc2cc(-c3ccccc3)nc3cc(OC)ccc23)CN1C(=O)C(NC(=O)OC(C)(C)C)C(C)(C)C)C(=O)NS(=O)(=O)c1ccccc1I` (some centres unmarked) [Compound 56], in test [1], the IC50 was less than 50 nM. Moreover, in test [2], the EC50 was less than 500 nM.

In the case of `C=C1C[C@]1(NC(=O)[C@@H]1C[C@@H](Oc2cc(-c3ccccc3)nc3cc(OC)ccc23)CN1C(=O)C(NC(=O)OC(C)(C)C)C(C)(C)C)C(=O)NS(=O)(=O)c1cccc(C(F)(F)F)c1` (some centres unmarked) [Compound 48], the IC50 in test [1] is less than 50 nM. In test [2], the concentration for a half-maximal effect (EC50) was less than 500 nM.

As for `CCC1C[C@]1(NC(=O)[C@@H]1C[C@@H](Oc2cc(-c3ccccc3)nc3cc(OC)ccc23)CN1C(=O)[C@@H](NC(=O)OC(C)(C)C)C(C)C)C(=O)NS(=O)(=O)C1CC1` (stereo in doubt) [Compound 3, {1-[2-(1-cyclopropanesulfonylaminocarbonyl-2-ethylcyclopropylcarbamoyl)-4-(7-methoxy-2-phenylquinolin-4-yloxy)pyrrolidine-1-carbonyl]-2-methylpropyl}carbamic acid tert-butyl ester], the IC50 in test [1] is less than 50 nM. The concentration giving a half-maximal response (EC50) in test [2] was less than 50 nM.

Take `C=C1C[C@]1(NC(=O)[C@@H]1C[C@@H](Oc2cc(-c3ccccc3)nc3cc(OC)ccc23)CN1C(=O)C(NC(=O)OC(C)(C)C)C(C)(C)C)C(=O)NS(=O)(=O)c1ccccc1C(F)(F)F` (some centres unmarked) [Compound 47]: in test [1], the IC50 was less than 50 nM. The EC50 in test [2] was less than 500 nM.

In general, IC50 refers to the concentration at which inhibition is half-maximal. For orientation: EC50 means the concentration needed to bring the measured effect to its halfway point.

(Values after patent US6872805B2 (Bristol-Myers Squibb Company, priority 2000, dated 2005).)
